26 compounds from patent publication US5356916A, “1,2,4-oxadiazole derivatives having monoamine oxidase B enzyme-inhibitory activity” (Wakamoto Pharmaceutical Co., Ltd., priority 1991, dated 1994) can be followed below.

pIC50: −log10 of the molar value. Where two headings read alike, the source gives them in different places.

Assay [1] addresses T1, MAO-B (Rattus norvegicus, UniProt P19643).
T1 construct: mitochondria prepared from the liver of rats; from tissue; host or cells: rat liver mitochondria
T1 sequence (P19643 1-520): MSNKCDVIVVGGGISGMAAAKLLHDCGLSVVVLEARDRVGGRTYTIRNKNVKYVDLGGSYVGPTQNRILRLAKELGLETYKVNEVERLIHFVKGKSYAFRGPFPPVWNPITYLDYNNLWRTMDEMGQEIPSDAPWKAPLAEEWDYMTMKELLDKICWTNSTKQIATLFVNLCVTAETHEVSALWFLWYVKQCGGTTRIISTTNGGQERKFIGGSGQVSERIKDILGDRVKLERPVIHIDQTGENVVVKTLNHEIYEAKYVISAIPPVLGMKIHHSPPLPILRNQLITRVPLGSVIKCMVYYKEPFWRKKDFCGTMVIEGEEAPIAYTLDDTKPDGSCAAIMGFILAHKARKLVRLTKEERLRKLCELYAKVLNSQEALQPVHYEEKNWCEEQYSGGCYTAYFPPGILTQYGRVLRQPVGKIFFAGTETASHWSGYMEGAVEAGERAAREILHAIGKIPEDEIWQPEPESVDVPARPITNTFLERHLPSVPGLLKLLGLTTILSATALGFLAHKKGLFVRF
Put plainly: In vitro inhibition of monoamine oxidase B (oxygen electrode, rat liver mitochondria, substrate benzylamine). It counts as biochemical. Conditions: for MAO-A/MAO-B: ratio of IC50 values MAO-A/MAO-B. As to the method: (§1) The MAO-inhibitory activity of the compounds of the present invention was determined according to an MAO-inhibitory activity determining method using the oxygen electrode disclosed in K. F. Tipton et al., Biochem. J., 1968,108, pp. 95-99.
(§2) A potassium phosphate buffer solution of mitochondria prepared from the liver of rats was preincubated at 37° C. with or without a compound of the present invention and then a substrate was added to the mixture to thus initiate the reaction at that temperature while the dissolved oxygen-consuming reaction due to MAO activity in the reaction solution was monitored by the oxygen electrode. In this respect, the substrates used were serotonin (5-HT) for the MAO-A activity determination and benzylamine (BA) for the MAO-B activity determination. The MAO-inhibitory activity was evaluated in terms of an IC5.sbsb.0 value which is the concentration of a compound tested required for reducing the rate of oxygen-consuming reaction performed in the presence of the compound to 50% of that of the reaction performed in the absence of the compound.

Assay [2] addresses T2, MAO-A (Rattus norvegicus, UniProt P21396).
T2 construct: mitochondria prepared from the liver of rats; from tissue; host or cells: rat liver mitochondria
T2 sequence (P21396 1-526): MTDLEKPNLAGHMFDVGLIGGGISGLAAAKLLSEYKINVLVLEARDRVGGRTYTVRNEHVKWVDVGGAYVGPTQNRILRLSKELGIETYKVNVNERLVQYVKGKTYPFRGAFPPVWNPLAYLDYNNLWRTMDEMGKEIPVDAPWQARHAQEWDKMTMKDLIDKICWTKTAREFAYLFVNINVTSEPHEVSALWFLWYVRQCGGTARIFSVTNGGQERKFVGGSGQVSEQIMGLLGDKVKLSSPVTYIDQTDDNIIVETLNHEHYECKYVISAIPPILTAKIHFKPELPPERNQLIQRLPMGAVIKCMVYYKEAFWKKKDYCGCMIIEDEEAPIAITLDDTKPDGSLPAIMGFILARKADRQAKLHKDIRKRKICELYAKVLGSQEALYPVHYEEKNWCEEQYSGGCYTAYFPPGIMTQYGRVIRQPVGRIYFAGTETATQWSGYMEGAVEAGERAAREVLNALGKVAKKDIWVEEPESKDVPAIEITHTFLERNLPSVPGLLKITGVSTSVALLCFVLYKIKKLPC
Put plainly: In vitro inhibition of monoamine oxidase A (oxygen electrode, rat liver mitochondria, substrate serotonin). It counts as biochemical. As to the method: as §1, §2

Setting [3] is: rat liver mitochondria, 37° C., preincubated, substrate benzylamine (BA), read-out: IC50 MAO-B.
Where [4] appears, read: rat liver mitochondria, 37° C., preincubated, substrate serotonin (5-HT), read-out: IC50 MAO-A.

With `c1cn(CCCOc2ccc(-c3noc(C4CC4)n3)cc2)cn1` [Example 4, 3-[4-[3-(1H-imidazol-1-yl)propoxy]phenyl]-5-cyclo-propyl-1,2,4-oxadiazole], the values for the pIC50 in assay [1] (setting [3]) and in assay [2] (setting [4]) were 5.70 and 4.00, respectively. Also, the MAO-A/MAO-B in assay [1] stood at 50.

Regarding `c1ccc(-c2nc(-c3ccc(OCCCn4ccnc4)cc3)no2)cc1` [Example 5, 3-[4-[3-(1H-imidazol-1-yl)propoxy]phenyl]-5-phenyl-1,2,4-oxadiazole], the pIC50 in assay [1] (setting [3]) was 4.30; in assay [2] (setting [4]), 4.00. The MAO-A/MAO-B in assay [1] stood at 2.

Regarding `Cc1nc(-c2ccc(OCCCn3ccnc3)cc2)no1` [Example 24, 3-[4-[3-(1H-imidazol-1-yl)propoxy]phenyl]-5-methyl-1,2,4-oxadiazole], the pIC50 in assay [1] (setting [3]) is 5.62; in assay [2] (setting [4]), 3.26. Moreover, in assay [1], the MAO-A/MAO-B was determined as 230.

As to `FC(F)(F)C(F)(F)c1nc(-c2ccc(OCCCn3ccnc3)cc2)no1` [Example 22, 3-[4-[3-(1H-imidazol-1-yl)propoxy]phenyl]-5-penta-fluoroethyl-1,2,4-oxadiazole], the negative-log IC50 (pIC50) is 7.05 in assay [1] (setting [3]) and 4.00 in assay [2] (setting [4]). Further, in assay [1], the MAO-A/MAO-B worked out at 1100.

Regarding `Cc1nc(-c2ccc(OCCCc3ccccc3)cc2)no1` [Example 29, 3-[4-(3-phenylpropoxy)phenyl]-5-methyl-1,2,4-oxadiazole], the pIC50 was 4.66 in assay [1] (setting [3]) and 3.96 in assay [2] (setting [4]). The MAO-A/MAO-B in assay [1] is recorded as 5.

In the case of `CCc1nc(-c2ccc(OCCCn3ccnc3)cc2)no1` [Example 1, 3-[4-[3-(1H-imidazol-1-yl)propoxy]phenyl]-5-ethyl-1,2,4-oxadiazole], the negative logarithm of the IC50 (pIC50) in assay [1] (setting [3]) was 6.52; in assay [2] (setting [4]) it was 3.70. Further, the MAO-A/MAO-B in assay [1] worked out at 670.

With `CNc1nc(-c2ccc(OCCCn3ccnc3)cc2)no1` [Example 32, 3-[4-[3-(1H-imidazol-1-yl)propoxy]phenyl]-5-methyl-amino-1,2,4-oxadiazole], the negative-log IC50 (pIC50) in assay [1] (setting [3]) was 5.92; in assay [2] (setting [4]), 3.96. Further, in assay [1], the MAO-A/MAO-B was 92.

Take `CCCOc1ccc(-c2noc(C)n2)cc1` [Example 28, 3-(4-propoxy)phenyl-5-methyl-1,2,4-oxadiazole]: the pIC50 in assay [1] (setting [3]) was 4.60; in assay [2] (setting [4]) it was 4.74. In assay [1], the MAO-A/MAO-B is 0.7.

On to `CCc1nc(-c2ccc(OCCCN3C(=O)c4ccccc4C3=O)cc2)no1` [Example 10, 3-[4-(3-phthalimidopropoxy)phenyl]-5-ethyl-1,2,4-oxadiazole], for which the pIC50 in assay [1] (setting [3]) and in assay [2] (setting [4]) was 4.00 in each case. Also, in assay [1], the MAO-A/MAO-B turned out to be 1.

Regarding `FC(F)(F)C(F)(F)C(F)(F)c1nc(-c2ccc(OCCCn3ccnc3)cc2)no1` [Example 23, 3-[4-[3-(1H-imidazol-1-yl)propoxy]phenyl]-5-hepta-fluoropropyl-1,2,4-oxadiazole], in assay [1], the pIC50 is 5.33 and the MAO-A/MAO-B amounted to 21. Also, the pIC50 in assay [2] was 4.00.

Consider `CCCc1nc(-c2ccc(OCCCn3ccnc3)cc2)no1` [Example 3, 3-[4-[3-(1H-imidazol-1-yl)propoxy]phenyl]-5-propyl-1,2,4-oxadiazole], for which the pIC50 in assay [1] (setting [3]) was 6.00; in assay [2] (setting [4]), 3.70. Further, in assay [1], the MAO-A/MAO-B was found to be 200.

For the compound `Cc1nc(-c2ccc(OCc3ccccc3)cc2)no1` [Example 30, 3=(4-benzyloxy)phenyl-5-methyl-1,2,4-oxadiazole], the pIC50 in assay [1] (setting [3]) was 5.32; in assay [2] (setting [4]), 4.30. For the same compound, the MAO-A/MAO-B in assay [1] came to 10.

As to `CCc1nc(-c2ccc(OCc3ccccc3)cc2)no1` [Example 19, 3-(4-benzyloxy)phenyl-5-ethyl-1,2,4-oxadiazole], the results for the pIC50 in assay [1] (setting [3]) and in assay [2] (setting [4]) were 5.10 and 4.00, respectively. For the same compound, the MAO-A/MAO-B in assay [1] was 13.

With `CCCN(CCC)CCCOc1ccc(-c2noc(-c3ccccc3)n2)cc1` [Example 9, 3-[4-(3-dipropylaminopropoxy)phenyl]-5-phenyl-1,2,4-oxadiazole], the pIC50 in assay [1] (setting [3]) was 4.30; in assay [2] (setting [4]), 4.00. For the same compound, in assay [1], the MAO-A/MAO-B turned out to be 2.

`O=C1CCCN1CCCOc1ccc(-c2noc(-c3ccccc3)n2)cc1` [Example 17, 3-[4-[3-(2-oxopyrrolidin-1-yl)propoxy]phenyl]-5-phenyl-1,2,4-oxadiazole]: the negative-log IC50 (pIC50) in assay [1] (setting [3]) and in assay [2] (setting [4]) was 4.00 each time. The MAO-A/MAO-B in assay [1] is listed as 1.

Consider `CCc1nc(-c2ccc(OCCCn3ccnc3C)cc2)no1` [Example 6, 3-[4-[3-(2-methyl-1H-imidazol-1-yl)propoxy]phenyl]-5-ethyl-1,2,4-oxadiazole], for which the pIC50 in assay [1] (setting [3]) and in assay [2] (setting [4]) was 3.82 in each case. Besides, the MAO-A/MAO-B in assay [1] came to 1.

For `CCc1nc(-c2ccc(OCCn3ccnc3)cc2)no1` [Example 18, 3-[4-[2-(1H-imidazol-1-yl)ethoxy]phenyl]-5-ethyl-1,2,4-oxadiazole], the pIC50 in assay [1] (setting [3]) is 4.22; in assay [2] (setting [4]) it was 4.05. Also, the MAO-A/MAO-B in assay [1] amounted to 1.5.

On to `ClC(Cl)(Cl)c1nc(-c2ccc(OCCCn3ccnc3)cc2)no1` [Example 2, 3-[4-[3-(1H-imidazol-1-yl)propoxy]phenyl]-5-tri chloromethyl-1,2,4-oxadiazole], for which the negative-log IC50 (pIC50) in assay [1] (setting [3]) is 7.52; in assay [2] (setting [4]), 3.70. The MAO-A/MAO-B in assay [1] is recorded as 6700.

On to `CCc1nc(-c2ccc(OCCCN3CCN(C)CC3)cc2)no1` [Example 13, 3-[4-[3-(4-methylpiperazinyl)propoxy]phenyl]-5-ethyl-1,2,4-oxadiazole], for which the pIC50 in assay [1] (setting [3]) and in assay [2] (setting [4]) was 4.00 each time. Besides, the MAO-A/MAO-B in assay [1] turned out to be 1.

As for `CCc1nc(-c2ccc(OCCCc3ccccc3)cc2)no1` [Example 15, 3-[4-(3-phenylpropoxy)phenyl]-5-ethyl-1,2,4-oxadiazole], the pIC50 in assay [1] (setting [3]) and in assay [2] (setting [4]) was 3.70 each time. Moreover, the MAO-A/MAO-B in assay [1] amounted to 1.

Regarding `CCc1nc(-c2ccc(OCCCN3CCOCC3)cc2)no1` [Example 11, 3-[4-(3-morpholinopropoxy)phenyl]-5-ethyl-1,2,4-oxadiazole], the negative-log IC50 (pIC50) in assay [1] (setting [3]) was 4.00; in assay [2] (setting [4]), 3.70. Further, the MAO-A/MAO-B in assay [1] came to 2.

Turning to `CCCOc1ccc(-c2noc(CC)n2)cc1` [Example 16, 3-(4-propoxy)phenyl-5-ethyl-1,2,4-oxadiazole], the pIC50 was 5.00 in assay [1] (setting [3]) and 4.32 in assay [2] (setting [4]). Moreover, in assay [1], the MAO-A/MAO-B is listed as 4.8.

For `CCCN(CCC)CCCOc1ccc(-c2noc(C)n2)cc1` [Example 25, 3-[4-(3-dipropylaminopropoxy)phenyl]-5-methyl-1,2,4-oxadiazole], the negative logarithm of the IC50 (pIC50) in assay [1] (setting [3]) is 6.00; in assay [2] (setting [4]), 4.00. In addition, in assay [1], the MAO-A/MAO-B is given as 100.

For the compound `FC(F)(F)c1nc(-c2ccc(OCCCn3ccnc3)cc2)no1` [Example 21, 3-[4-[3-(1H-imidazol-1-yl)propoxy]phenyl]-5-trifluoromethyl-1,2,4-oxadiazole], the pIC50 in assay [1] (setting [3]) was 7.52; in assay [2] (setting [4]) it was 3.70. Also, the MAO-A/MAO-B in assay [1] is listed as 6700.

`Cc1nc(-c2ccc(OCc3cccc(Cl)c3)cc2)no1` [Example 31, 3-[4-(3-chlorobenzyloxy)phenyl]-5-methyl-1,2,4-oxadiazole]: the negative-log IC50 (pIC50) in assay [1] (setting [3]) was 5.52; in assay [2] (setting [4]) it was 3.70. Further, the MAO-A/MAO-B in assay [1] worked out at 67.

As to `CCc1nc(-c2ccc(OCCCn3cnc4ccccc43)cc2)no1` [Example 7, 3-[4-[3-(1H-benzimidazol-1-yl)propoxy]phenyl]-5-ethyl-1,2,4-oxadiazole], the negative logarithm of the IC50 (pIC50) is 3.80 in assay [1] (setting [3]) and 3.82 in assay [2] (setting [4]). In addition, the MAO-A/MAO-B in assay [1] is 0.9.
